According to US20180296456A1, “Decapeptide-12 Modulation of Sirtuin Gene Expression in Epidermal Keratinocyte Progenitors” (Escape Therapeutics, Inc., priority 2017, published 2018):
Peptide text beside a SMILES is read from it.

Legend:
SIRT3 = SIRT3 transcription, semi-quantitative RT-PCR in human epidermal progenitors; type: cell-based; conditions: 72 h
Procedure: Human neonatal epidermal progenitors (Thermo Fisher Scientific, NY) were seeded in 6-well plates at a density of 2×10^5 cells/well. Each well received 2 ml of Epilife media containing 60 μM calcium chloride (Thermo Fisher Scientific, NY). Plates were incubated in a humidified chamber at 37 degrees Celsius and 5 percent CO2. Twenty-four hours later, cells were treated with various concentrations of oxyresveratrol or decapeptide-12 dissolved in PBS containing 5 percent DMSO. Control wells received vehicle only (5 percent DMSO and PBS). Final concentration of DMSO in each well was 0.05 percent.
After a 72 hour incubation period, cells were trypsinized and total RNA extracted, using RNeasy kit (Qiagen, Valencia, Calif.) according to the manufacturer's protocol.
RNA concentration was determined using nanodrop (Thermo fisher scientific, NY). Two μg of total RNA were used to synthesize cDNA using oligo dT primers and TaqMan reverse transcription reagents (Thermo fisher scientific, NY). The reaction was carried out in DNA Engine Peltier Thermal Cycler (Bio-Rad, Hercules, Calif.). The annealing temperature was 25 degrees Celsius for 10 minutes, followed by first strand synthesis at 48 degrees Celsius for 1 hour, and heat inactivation at 95 degrees Celsius for 5 minutes.
The SIRT1-7 primers (table 1) were designed using Primer3. The semi-quantitative PCR reactions were performed on a DNA Engine Peltier Thermo Cycler (Bio-Rad, Hercules, Calif.). PCR was carried under the following conditions: denaturation at 94 degrees Celsius for 2 minutes and primer extension at 54 degrees Celsius for 30 seconds in 34 cycles for SIRT 1-7 and the housekeeping gene 18S.
Samples were run and resolved on a 1.5 percent agarose gel containing 0.5 μg/ml of ethidium bromide and imaged using the FluorChem HD2 Imaging System (Protein simple, San Jose, Calif.). Densitometry analysis was carried out using the AlphaEase FC software (Protein simple, San Jose, Calif.). Intensity ratios were calculated as the intensity value for each gene divided by the intensity value of the internal control gene 18S.
The effect of the decapeptides P4, P4A, P4B, and P4C upon the transcription levels of sirtuins 1-7 was evaluated. Table 4 summarizes transcription levels for all four decapeptides with the corresponding genes, at tested concentrations of: 10, 30, 50, 100, and 300 (all in μM).

[1] = Trypan blue cell viability, 7 days, melanoblasts; type: cell-based; conditions: human, relative to control, read-out: melanoblast viability after 7 days
Procedure: (§1) The effect of each of the decapeptides upon cell viability was also tested. In particular, cells were incubated with the decapeptide at various concentrations and then counted for viability relative to the control (untreated cells) using trypan blue. Cytotoxicity was measured according to the following formula:
(§2) [1−(# of cells in control−# of live cells in test sample)/# of cells in control]×100 percent.

[2] = Trypan blue cell viability, 7 days, epidermal progenitors; type: cell-based; conditions: human, relative to control, read-out: epidermal progenitor viability after 7 days
Procedure: as §1, §2

[3] = MTT cell proliferation assay, melanoblasts; type: cell-based, human; conditions: human, MTT, 72 h, read-out: melanoblast proliferation rate after 72 hours
Procedure: (§3) Proliferation rates for three human cell lines (epidermal progenitors, melanoblasts, and fibroblasts) were determined using a TACS® MTT Cell Proliferation Kit. Cells were seeded at 2.5×10^4/well in 96-well plates in a humidified atmosphere with 5 percent CO2 at 37 degrees Celsius. Twenty-four hours later, the decapeptides were added to the corresponding wells at varying concentrations and incubated for 72 hours. The remainder of the procedure was performed following the manufacturer's protocol.

melanoblasts = test: MTT cell proliferation assay, melanoblasts; type: cell-based, human; conditions: 100 μM, 72-hour incubation
Procedure: as §3

fibroblasts = test: MTT cell proliferation assay, fibroblasts; type: cell-based, human; conditions: 100 μM, 72-hour incubation
In short: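 Human fibroblasts and melanoblasts were seeded at 2.5×10^4/well at 37 degrees Celsius, 5 percent CO2. Proliferation was read by MTT kit per manufacturer's protocol.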

Structure (SMILES): CCCCCCCCCCCCCCCC(=O)N[C@@H](Cc1ccc(O)cc1)C(=O)N[C@@H](CCCNC(=N)N)C(=O)N[C@@H](CO)C(=O)N[C@@H](CCCNC(=N)N)C(=O)N[C@@H](CCCCN)C(=O)N[C@@H](Cc1ccc(O)cc1)C(=O)N[C@@H](CO)C(=O)N[C@@H](CO)C(=O)N[C@@H](Cc1c[nH]c2ccccc12)C(=O)N[C@@H](Cc1ccc(O)cc1)C(N)=O [P4A, Palmitoyl-YRSRKYSSWY-amide] (HELM PEPTIDE1{[CCCCCCCCCCCCCCCC(=O)[*:2]].Y.R.S.R.K.Y.S.S.W.Y.[am]}$$$$V2.0)
- SIRT3 transcription increase relative to control (SIRT3; 10 μM): 25 ± 4%
- SIRT3 transcription increase relative to control (SIRT3; 30 μM): 26 ± 3%
- SIRT3 transcription increase relative to control (SIRT3; 50 μM): 60 ± 4%
- SIRT3 transcription increase relative to control (SIRT3; 100 μM): 152 ± 2%
- SIRT3 transcription increase relative to control (SIRT3; 300 μM): 147 ± 2%
- viability at 168 h, 3 µM ([1]; 3 μM): 100%
- viability at 168 h, 10 µM ([1]; 10 μM): 99 ± 1%
- viability at 168 h, 30 µM ([1]; 30 μM): 98.5 ± 1%
- viability at 168 h, 50 µM ([1]; 50 μM): 98 ± 1%
- viability at 168 h, 100 µM ([1]; 100 μM): 97 ± 2%
- viability at 168 h, 300 µM ([1]; 300 μM): 96.2 ± 2%
- viability at 168 h, 500 µM ([1]; 500 μM): 95.6 ± 2%
- viability at 168 h, 1000 µM ([1]; 1000 μM): 94.8 ± 2%
- viability at 168 h, 3 µM ([2]; 3 μM): 100%
- viability at 168 h, 10 µM ([2]; 10 μM): 99 ± 1%
- viability at 168 h, 30 µM ([2]; 30 μM): 98.2 ± 1%
- viability at 168 h, 50 µM ([2]; 50 μM): 97.5 ± 1%
- viability at 168 h, 100 µM ([2]; 100 μM): 96.9 ± 2%
- viability at 168 h, 300 µM ([2]; 300 μM): 95.6 ± 2%
- viability at 168 h, 500 µM ([2]; 500 μM): 94.3 ± 2%
- viability at 168 h, 1000 µM ([2]; 1000 μM): 93.6 ± 3%
- viability at 72 h, 3 µM ([3]; 3 μM): 100%
- viability at 72 h, 10 µM ([3]; 10 μM): 100%
- viability at 72 h, 30 µM ([3]; 30 μM): 99 ± 1%
- viability at 72 h, 50 µM ([3]; 50 μM): 98 ± 1%
- viability at 72 h, 100 µM ([3]; 100 μM): 97 ± 2%
- viability at 72 h, 300 µM ([3]; 300 μM): 97 ± 2%
- viability at 72 h, 500 µM ([3]; 500 μM): 96 ± 2%
- viability at 72 h, 1000 µM ([3]; 1000 μM): 95 ± 2%
- reduction in the proliferation rate (melanoblasts): 3%
- reduction in the proliferation rate (fibroblasts): 3%
